Like-named read-outs stand apart in the source and are kept apart here.
Key:
[1] = In vitro photo-release and hydrolytic release of dicamba in an aqueous medium (Example 36); type: physicochemical; settings: 0.01 mM (0.005 mM for diesters); for Conversion to Dicamba, Dark, Day 0 / Conversion to Dicamba, Dark, Day 1 / Conversion to Dicamba, Dark, Day 2 / Conversion to Dicamba, Dark, Day 3 / Conversion to Dicamba, Dark, Day 4 / Conversion to Dicamba, Dark, Day 7 / Conversion to dicamba, Dark, Day 10 / Conversion to Dicamba, Dark, Day 14 / Conversion to Dicamba, Dark, Day 21 / Conversion to Dicamba, Dark, Day 28: amber (dark) bottle; for Conversion to Dicamba, Light, Day 0 / Conversion to Dicamba, Light, Day 1 / Conversion to Dicamba, Light, Day 2 / Conversion to Dicamba, Light, Day 3 / Conversion to Dicamba, Light, Day 4 / Conversion to Dicamba, Light, Day 7 / Conversion to dicamba, Light, Day 10 / Conversion to Dicamba, Light, Day 14 / Conversion to Dicamba, Light, Day 21 / Conversion to Dicamba, Light, Day 28: quartz tube
Experimental: This Example describes the determination of photo-lability and hydrolytic lability of dicamba esters in an aqueous medium. 1 mM solutions of the esters were prepared in acetonitrile (or […] solutions of dicamba diesters). The solutions were then diluted with deionized water to a concentration of 0.01 mM (or 0.005 mM for diesters). The solutions were then transferred to quartz tubes and amber bottles and held in a growth chamber by the procedure of Example 26. A 14-hour day was generally used at a constant temperature of 35° C. Hydrolytic activity was assessed by measuring the increase in dicamba concentration after day zero in the amber (dark) bottles. […] Photolysis manifested itself as increased conversion in the quartz tubes compared to the dark control.
This Example provides the results of an aqueous lability test following the protocol of Example 35 for several dicamba esters which convert to dicamba primarily by hydrolysis. As shown by the results in the table below, conversion of the dark controls generally equaled or exceeded conversion in the photolysis solutions.

velvetleaf = test: Greenhouse post-emergent control of velvetleaf by emulsifiable concentrates (Example 37); type: in vivo; settings: for pest or weed control at 140 g/ha / pest or weed control at 280 g/ha / pest or weed control at 420 g/ha / pest or weed control at 560 g/ha: Abutilon theophrasti, post-emergence, 504 h; for pest or weed control at 140 g/ha: read-out: % Control of velvetleaf, 140 g/ha; for pest or weed control at 280 g/ha: read-out: % Control of velvetleaf, 280 g/ha; for pest or weed control at 420 g/ha: read-out: % Control of velvetleaf, 420 g/ha; for pest or weed control at 560 g/ha: read-out: % Control of velvetleaf, 560 g/ha
Experimental: The efficacy of some photo-labile ester formulations from Example 28 for post-emergent control of velvetleaf was tested in the greenhouse. All formulations were tested at rates of 140, 280, 420, and 560 g dicamba equivalent per hectare rates and compared to the diglycolamine salt of dicamba (CLARITY®) at the same rates and untreated control plants. The velvetleaf plants were 10-15 cm in height at the time of spraying. Percent control was evaluated three weeks after treatment.
The methodology of Example 29 was used to evaluate the efficacy of several esters of dicamba which convert to dicamba by hydrolysis for post-emergent control of velvetleaf as emulsifiable concentrate formulations.

| SMILES | Conversion to Dicamba, Dark, Day 0 [1] [%] | Conversion to Dicamba, Dark, Day 1 [1] [%] | Conversion to Dicamba, Dark, Day 2 [1] [%] | Conversion to Dicamba, Dark, Day 3 [1] [%] | Conversion to Dicamba, Dark, Day 4 [1] [%] | Conversion to Dicamba, Dark, Day 7 [1] [%] | Conversion to dicamba, Dark, Day 10 [1] [%] | Conversion to Dicamba, Dark, Day 14 [1] [%] | Conversion to Dicamba, Dark, Day 21 [1] [%] | Conversion to Dicamba, Dark, Day 28 [1] [%] | Conversion to Dicamba, Light, Day 0 [1] [%] | Conversion to Dicamba, Light, Day 1 [1] [%] | Conversion to Dicamba, Light, Day 2 [1] [%] | Conversion to Dicamba, Light, Day 3 [1] [%] | Conversion to Dicamba, Light, Day 4 [1] [%] | Conversion to Dicamba, Light, Day 7 [1] [%] | Conversion to dicamba, Light, Day 10 [1] [%] | Conversion to Dicamba, Light, Day 14 [1] [%] | Conversion to Dicamba, Light, Day 21 [1] [%] | Conversion to Dicamba, Light, Day 28 [1] [%] | further results |
| --- | --- | --- | --- | --- | --- | --- | --- | --- | --- | --- | --- | --- | --- | --- | --- | --- | --- | --- | --- | --- | --- |
| C=C(C(=O)OCC)C(OC(=O)c1c(Cl)ccc(Cl)c1OC)c1ccccc1[N+](=O)[O-] (stereo not shown) [Ester 31a] | 16 | 37 | 43 | 43 | 44 | 49 | 50 | 51 | 49 | 50 | 16 | 45 | 48 | 46 | 45 | 46 | 50 | 51 | 53 | 53 | – |
| CCOC(=O)CCn1nc(OC(=O)c2c(Cl)ccc(Cl)c2OC)ccc1=O [Ester 35a] | 19 | 66 | 69 | 68 | 71 | 74 | – | 70 | 70 | 74 | 19 | 57 | 58 | 58 | 62 | 60 | – | 64 | 63 | 65 | pest or weed control at 140 g/ha (velvetleaf): 35.8%; pest or weed control at 280 g/ha (velvetleaf): 60%; pest or weed control at 420 g/ha (velvetleaf): 85%; pest or weed control at 560 g/ha (velvetleaf): 87.5% |
| COc1ccc(COC(=O)c2c(Cl)ccc(Cl)c2OC)cc1 [Ester 29a, 4-methoxybenzyl ester of dicamba] | 27 | 81 | 83 | 83 | 80 | 84 | – | 85 | – | – | 27 | 75 | 74 | 75 | 74 | 76 | – | 77 | – | – | pest or weed control at 140 g/ha (velvetleaf; greenhouse, 140 g/ha, Example 37): 30%; pest or weed control at 280 g/ha (velvetleaf; greenhouse, 280 g/ha, Example 37): 55%; pest or weed control at 420 g/ha (velvetleaf; greenhouse, 420 g/ha, Example 37): 74.2%; pest or weed control at 560 g/ha (velvetleaf; greenhouse, 560 g/ha, Example 37): 81.7% |
| COc1c(Cl)ccc(Cl)c1C(=O)Oc1ccc(=O)n(CCC=O)n1 [Ester 33a] | 13 | 15 | 18 | 18 | 22 | 21 | 28 | 37 | 50 | 55 | 13 | 18 | 20 | 19 | 22 | 23 | 30 | 42 | 53 | 57 | pest or weed control at 140 g/ha (velvetleaf): 15.8%; pest or weed control at 280 g/ha (velvetleaf): 27.5%; pest or weed control at 420 g/ha (velvetleaf): 22.5%; pest or weed control at 560 g/ha (velvetleaf): 30.8%; post-emergent efficacy on velvetleaf compared with the salt, in words (velvetleaf; greenhouse, emulsifiable concentrates): reduced post-emergent efficacy |
